Test systems include HCT-15; LOX IMVI; MCF7; NCI-H460; A549; 786-0; SK-MEL-28; RPMI-8226; SW-620; KM12; SN12C; MDA-MB-231; Malme-3M; NCI-H226; EKVX; K562; SF-539; SK-OV-3; HOP-62; CCRF-CEM.
Holding throughout (test): growth of human tumour cells (NCI), 48 h

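Assay format: 96-well plates, 48-hour exposure. GI50: concentration for 50% inhibition of growth.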 The source made the active and inactive calls. Rule as the data show it: active = GI50 up to about 1.1 µM and inactive = higher.

Consider `NC(=O)CSc1nc2ccccc2c(=O)n1N`, for which the GI50 in the experiment with HCT-15 is more than 100 µM; with LOX IMVI, > 100 µM (inactive); in the experiment on MCF7, > 100 µM (inactive); in the experiment on NCI-H460, > 100 µM (inactive); in the experiment on A549 it was > 100 µM (inactive); in the experiment on 786-0, > 100 µM (inactive). The GI50 in the experiment with SK-MEL-28, with RPMI-8226, with SW-620, with KM12, with SN12C and in the experiment on MDA-MB-231 was > 100 µM (inactive) throughout. Besides, the GI50 in the experiment with Malme-3M, in the experiment on NCI-H226, in the experiment on EKVX, in the experiment with K562 and with SF-539 was > 100 µM (inactive) throughout.

On to `COc1ccc(C2=C(N)c3cc(OC)ccc3C2=O)cc1`, for which the GI50 with HCT-15 is more than 100 µM; in the experiment with LOX IMVI it was > 100 µM (inactive); with MCF7 it was > 100 µM (inactive); in the experiment on NCI-H460, > 100 µM (inactive); with A549, > 100 µM (inactive); in the experiment with 786-0, > 100 µM (inactive). In addition, the GI50 is > 100 µM (inactive) with SK-MEL-28; 38.2 µM (inactive) with RPMI-8226; > 100 µM (inactive) in the experiment with SK-OV-3; > 100 µM (inactive) with SW-620; 29.2 µM (inactive) in the experiment with KM12; > 100 µM (inactive) in the experiment on SN12C. Also, the GI50 in the experiment with MDA-MB-231, in the experiment on Malme-3M, in the experiment with NCI-H226, with HOP-62, with EKVX and in the experiment on SF-539 was > 100 µM (inactive) throughout.

As to `COc1ccc(-n2c(C)nc3ccc(/N=C/c4ccccc4)cc3c2=O)cc1`, the GI50 in the experiment on HCT-15 is more than 100 µM; with LOX IMVI, > 100 µM (inactive); with MCF7, > 100 µM (inactive); in the experiment on NCI-H460, > 100 µM (inactive); in the experiment with 786-0, > 100 µM (inactive); in the experiment with SK-MEL-28 it was > 100 µM (inactive). The GI50 is 51.2 µM (inactive) with RPMI-8226; > 100 µM (inactive) in the experiment with SW-620; > 100 µM (inactive) in the experiment with KM12; > 100 µM (inactive) in the experiment with SN12C; > 100 µM (inactive) in the experiment with MDA-MB-231; > 100 µM (inactive) in the experiment on Malme-3M. Also, the GI50 in the experiment on NCI-H226, with HOP-62, with EKVX and with K562 was > 100 µM (inactive) each time.

In the case of `CCOC(=O)C(C(=O)OCC)C(=S)NC1OC(COC(C)=O)C(OC(C)=O)C(OC(C)=O)C1OC(C)=O` (stereo not given), the GI50 was more than 100 µM with HCT-15; > 100 µM (inactive) in the experiment on LOX IMVI; > 100 µM (inactive) with MCF7; > 100 µM (inactive) in the experiment on NCI-H460; > 100 µM (inactive) with A549; > 100 µM (inactive) in the experiment with 786-0. The GI50 in the experiment on SK-MEL-28, in the experiment on RPMI-8226, with SK-OV-3, in the experiment with SW-620, in the experiment with KM12 and with SN12C was > 100 µM (inactive) each time. For the same compound, the GI50 in the experiment with CCRF-CEM, in the experiment with MDA-MB-231, in the experiment on Malme-3M, in the experiment on NCI-H226, with HOP-62 and with EKVX was > 100 µM (inactive) throughout. Besides, the GI50 in the experiment on SF-539 was > 100 µM (inactive).

These data come from ChEMBL document CHEMBL1201862, “PubChem BioAssay data set” (2004).
